Measured values from patent US20100305095A1, “Use of HPPD Inhibitors in the Treatment of Depression and/or Withdrawal Symptoms Associated with Addictive Drugs” (priority 2006, published 2010).

What was measured:
Format in all cases: in vivo
[1] = system: plasma tyrosine, dopamine levels and dopamine turnover; test: Plasma tyrosine, dopamine levels and dopamine turnover in orally dosed mice; details: 0.1 mg/Kg oral; for plasma tyrosine levels: vs vehicle control
Method: Illustration of increase in levels and turnover of dopamine as a mechanism for treatment/prevention of depression and treatment of the withdrawal symptoms associated with withdrawal from an addictive drug such as cocaine. 10 mice were dosed orally with 0.1 mg/Kg of 2-(2-Nitro-4-Trifluoromethylbenzoyl)-1,3-Cyclohexanedione. As a control, 10 mice were orally dosed with the dosing vehicle. After 24 hours, plasma tyrosine levels were identified. Dopamine levels and dopamine turnover were also analysed. 10 mice were dosed orally with 0.1 mg/Kg of 2-(2-Nitro-4-Trifluoromethylbenzoyl)-1,3-Cyclohexanedione. As a control, 9 mice were orally dosed with the dosing vehicle. After 6 hours, plasma tyrosine levels were identified. Dopamine levels and dopamine turnover were also analysed.

[2] = system: plasma tyrosine, dopamine turnover and noradrenaline levels; test: Plasma tyrosine, dopamine turnover and noradrenaline levels in orally dosed rats; details: 2 mg/Kg oral, after 24 hours
Method: 10 rats were dosed orally with 2 mg/Kg of 2-(2-Nitro-4-Trifluoromethylbenzoyl)-1,3-Cyclohexanedione. As a control, 10 rats were orally dosed with the dosing vehicle. After 24 hours, plasma tyrosine levels were identified. Dopamine levels and dopamine turnover and noradrenaline levels were also analysed.

rats = test: Activity cage with automatic infrared activity monitoring (rearing, activity, mobility) in rats; details: 2 mg/Kg oral, after 4 hours, one hour in activity cage
Method: Analysis of stimulatory effect of HPPD inhibitors as a mechanism for the treatment of withdrawal symptoms associated with an addictive drug such as nicotine. 12 rats were dosed orally with 2 mg/Kg of 2-(2-Nitro-4-Trifluoromethylbenzoyl)-1,3-Cyclohexanedione. As a control, 12 rats were orally dosed with the dosing vehicle. After 4 hours, animals were each placed in an activity cage for one hour, containing an automatic activity monitoring system with infrared beams to determine activity and mobility.

Structure (SMILES): O=C1CCCC(O)=C1C(=O)c1ccc(C(F)(F)F)cc1[N+](=O)[O-] [2-(2-Nitro-4-Trifluoromethylbenzoyl)-1,3-Cyclohexanedione]
- dopamine increase compared with the mean of the controls ([1]; after 6 hours): up to 15%
- dopamine turnover increase compared with the mean of the controls ([1]; after 6 hours): up to 15%
- plasma tyrosine levels ([1]; after 6 hours): elevated
- dopamine increase compared with the mean of the controls ([1]; after 24 hours): up to 16%
- dopamine turnover increase compared with the mean of the controls ([1]; after 24 hours): up to 27%
- plasma tyrosine levels ([1]; after 24 hours): elevated
- dopamine turnover increase in the treated compared with the control group [2]: 25%
- noradrenaline increase compared with the mean of the controls ([2]; cortex): up to 76%
- noradrenaline increase compared with the mean of the controls ([2]; hypothalamus): ≤ 21%
- plasma tyrosine levels ([2]; vs vehicle control): elevated
- active time, decrease compared with the control group (rats): ~27%
- activity counts, decrease compared with the control group (rats): approximately 43%
- centre rearing counts, increase compared with the control group (rats): 63%
- effect on rearing behaviour (rats): mild stimulatory effect
- mean rearing counts, increase compared with the control group (rats): 91%
- mobile time, decrease compared with the control group (rats): ~49%
- rearing time, increase compared with the control group (rats): 79%
